From patent US8569298B2, “Pyridine compounds” (Astrazeneca AB, priority 2008, dated 2013) come the findings set out here.

For this experiment, the target named is T1, FAK enzyme (6 His tagged kinase domain, GenBank NP—722560) (Homo sapiens, UniProt Q05397).
T1 construct: 6 His; made in house; host or cells: insect cell culture infected with baculovirus
T1 sequence (Q05397 422-680 limits assumed): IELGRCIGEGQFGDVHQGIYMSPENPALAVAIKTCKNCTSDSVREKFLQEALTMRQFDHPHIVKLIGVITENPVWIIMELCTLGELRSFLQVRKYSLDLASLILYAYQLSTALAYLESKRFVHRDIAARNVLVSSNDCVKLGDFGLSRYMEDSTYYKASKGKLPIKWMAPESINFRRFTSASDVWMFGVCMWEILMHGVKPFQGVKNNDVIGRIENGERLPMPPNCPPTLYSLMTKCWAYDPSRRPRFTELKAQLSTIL
As to the kind of experiment: In vitro enzyme assay (a): sandwich ELISA of FAK tyrosine kinase activity on polyGAT peptide, TMB colorimetric endpoint. Conditions: in vitro Enzyme Assay test (a); ATP at Km; geometric mean of n > 1 measurements, values marked * tested once. The format is biochemical. In outline:
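Recombinant His-tagged FAK kinase domain (baculovirus/insect cells) phosphorylated plate-coated polyGAT with ATP at Km, MgCl2/MnCl2, HEPES pH 7.4, 25 min at room temperature before EDTA stop. Phosphotyrosine detected by HRP-4G10 antibody and TMB absorbance at 450 nm; IC50 from 12-point curve anchored to DMSO and staurosporine controls.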
Molecule `CCn1cc(Nc2cc(Nc3cccc4c3C(=O)N(C)CC4)c(Cl)cn2)c(C)n1` [Example 6.04, 8-[[5-chloro-2-[(1-ethyl-3-methyl-pyrazol-4-yl)amino]-4-pyridyl]amino]-2-methyl-3,4-dihydroisoquinolin-1-one] had an IC50 of 6 nM. The result for `CN1CCC(n2cc(Nc3cc(Nc4cccc5c4C(=O)N(C)CC5)c(C#N)cn3)cn2)CC1` [Example 1.07, 4-[(2-methyl-1-oxo-3,4-dihydroisoquinolin-8-yl)amino]-6-[[1-(1-methyl-4-piperidyl)pyrazol-4-yl]amino]pyridine-3-carbonitrile] reads 128 nM; that for `CNC(=O)c1ccc(F)cc1Nc1cc(Nc2cc(C)nn2C)ncc1C(F)(F)F` [Example 15.03, 2-[[2-[(2,5-dimethylpyrazol-3-yl)amino]-5-(trifluoromethyl)-4-pyridyl]amino]-4-fluoro-N-methyl-benzamide], 6 nM; that for `CNC(=O)c1ccccc1Nc1cc(Nc2cnn(CC(=O)N3CCCN(C)CC3)c2)ncc1F` [Example 4.04, 2-[[5-fluoro-2-[[1-[2-(4-methyl-1,4-diazepan-1-yl)-2-oxo-ethyl]pyrazol-4-yl]amino]-4-pyridyl]amino]-N-methyl-benzamide], 967 nM. `CNC(=O)c1ccccc1Nc1cc(Nc2cnn(C3CCNCC3)c2)ncc1Cl` [Example 3.19, 2-[[5-Chloro-2-[[1-(4-piperidyl)pyrazol-4-yl]amino]-4-pyridyl]amino]-N-methyl-benzamide]: the half-inhibitory concentration (IC50) worked out at 686 nM. Consider `CNC(=O)c1ccccc1Nc1cc(Nc2cn(C)nc2C(F)(F)F)ncc1C(F)(F)F` [Example 8.12, N-methyl-2-[[2-[[1-methyl-3-(trifluoromethyl)pyrazol-4-yl]amino]-5-(trifluoromethyl)-4-pyridyl]amino]benzamide], for which the IC50 came out at 18 nM. The molecule `Cc1nn(C)cc1Nc1cc(Nc2ccc(N3CCN(C(C)C)CC3)c3c2C(=O)N(C)C3)c(F)cn1` [Example 4.28, 7-[[2-[(1,3-Dimethylpyrazol-4-yl)amino]-5-fluoro-4-pyridyl]amino]-4-(4-isopropylpiperazin-1-yl)-2-methyl-isoindolin-1-one] showed a half-inhibitory concentration (IC50) of 1120 nM. `CNC(=O)c1ccccc1Nc1cc(Nc2cn(C)cn2)ncc1Cl` [Example 3.18, 2-[[5-chloro-2-[(1-methylimidazol-4-yl)amino]-4-pyridyl]amino]-N-methyl-benzamide] showed a concentration for half-maximal inhibition (IC50) of 275 nM. As for `CNC(=O)c1c(Nc2cc(Nc3cc(C)nn3C)ncc2C(F)(F)F)cccc1OC` [Example 11.01, 2-[[2-[(2,5-dimethylpyrazol-3-yl)amino]-5-(trifluoromethyl)-4-pyridyl]amino]-6-methoxy-N-methyl-benzamide], the IC50 amounted to 5 nM. `CNC(=O)c1cc(Cl)ccc1Nc1cc(Nc2cn(C)nc2C)ncc1C(F)(F)F` [Example 10.07, 5-chloro-2-[[2-[(1,3-dimethylpyrazol-4-yl)amino]-5-(trifluoromethyl)-4-pyridyl]amino]-N-methyl-benzamide] displayed an IC50 of 14 nM. Molecule `CONC(=O)c1ccccc1Nc1cc(Nc2cc(C)nn2C)ncc1C(F)(F)F` [Example 14.02, 2-[[2-[(2,5-dimethylpyrazol-3-yl)amino]-5-(trifluoromethyl)-4-pyridyl]amino]-N-methoxy-benzamide] registered a concentration for half-maximal inhibition (IC50) of 2 nM. In turn, `CNC(=O)c1ccccc1Nc1cc(Nc2cnn(C3CCN(C)CC3)c2)ncc1Cl` [Example 3.12, 2-[[5-chloro-2-[[1-(1-methyl-4-piperidyl)pyrazol-4-yl]amino]-4-pyridyl]amino]-N-methyl-benzamide] came in with an IC50 of 195 nM. In the case of `CN1CCc2cccc(Nc3cc(Nc4cnn(CC(=O)N5CCCC5)c4)ncc3Cl)c2C1=O` [Example 3.23, 8-[[5-Chloro-2-[[1-(2-oxo-2-pyrrolidin-1-yl-ethyl)pyrazol-4-yl]amino]-4-pyridyl]amino]-2-methyl-3,4-dihydroisoquinolin-1-one], half-maximal inhibition (IC50) was put at 20 nM.
